Assay results from patent publication US20240398836A1, “EPOXY STEROIDS” (priority 2021, published 2024).

Experiments:
Format in all cases: cell-based
Nalm-6 cells [1] = assay: Selectivity: apoptosis (DNA fragmentation, flow cytometry) in leukemia cells
Procedure: WIL 071 acts selectively in malignant cells that are proliferating.
The DNA fragmentation was measured by flow cytometry, see FIG. 7. The experiments were performed in triplicate. The error bars show the standard deviations of the measured values of three independent experiments.

Nalm-6 cells [2] = assay: Inhibition of proliferation in leukemia cells (Nalm-6); settings: Nalm-6, 24 h, concentration-dependent
Procedure: In leukemia cells (Nalm-6), cell proliferation is inhibited. After 24 h, 1×10^5 cells will have proliferated to almost threefold (2.97×10^5 cells), while cell proliferation is inhibited up to 100% in a concentration-dependent way by treatment with the steroid WIL 071, see FIG. 1. The experiments were performed in triplicate. The error bars show the standard deviations of the measured values of three independent experiments.

[3] = test system: pancreatic carcinoma cells (DAN-G); assay: Apoptosis in pancreatic carcinoma cells; settings: DAN-G cell line
Procedure: In contrast to conventional glucocorticoids, the steroid WIL 071 can induce apoptosis also in pancreatic carcinoma cells.
The DNA fragmentation was measured by flow cytometry, see FIG. 11. The experiments were performed in triplicate. The error bars show the standard deviations of the measured values of three independent experiments.
The standard treatment for pancreatic carcinoma includes 5-fluorouracil.

Nalm-6 cells [4] = assay: Synergistic apoptosis induction with cytarabin or vincristine
Procedure: The experiments were performed in triplicate. The error bars show the standard deviations of the measured values of three independent experiments.

BiBo cells = assay: Apoptosis induction in polycytostatics-resistant BiBo cells vs BJAB; settings: vincristine-resistant BJAB, Bcl-2 overexpression
Procedure: BiBo cells are lymphoma cells (BJAB cells) that have been made resistent against vincristine, and have a Bcl-2 overexpression as a resistence mechanism. They have co-resistences for the following cytostatics: • vincristine, vinblastine, vindesine, vinorelbin, taxol • cytarabin • daunorubicin.
The experiments were performed in triplicate. The error bars show the standard deviations of the measured values of three independent experiments. The steroid WIL 071 overcomes steroid resistence in lymphoma cells (BiBo cells).

Compound: CC(C)CCC[C@@H](C)[C@H]1CC[C@H]2[C@@H]3[C@H]4OC[C@@]5(CC[C@H](O)C[C@]5(O)C4=O)[C@H]3CC[C@]12C [WIL-071, 3β,5α-dihydroxy-7β,19-epoxy-cholestan-6-one]
- apoptosis induction (DNA fragmentation) (Nalm-6 cells [1]): apoptosis is induced in a concentration-dependent way
- inhibition of cell proliferation (Nalm-6 cells [2]): up to 100%
- apoptosis induction (DNA fragmentation) [3]: significantly induces apoptosis
- synergistic effect on apoptosis with cytarabin (Nalm-6 cells [4]; Nalm-6, parallel treatment with cytarabin): synergistic effects
- synergistic effect on apoptosis with vincristine (Nalm-6 cells [4]; Nalm-6, parallel treatment with vincristine): synergistic effects
- apoptosis induction in resistant BiBo cells compared with BJAB (BiBo cells): induces as much apoptosis as in the non-resistent lymphoma cells
